One series can be described thus: in vitro. The following applies: human.
A further series concerns HepG2. Kind of series: cells. Conditions: Homo sapiens, HepG2, 72 h.
The next series deals with MDA-MB-435. Kind of series: cells. Conditions: Homo sapiens, MDA-MB-435, 72 h.
A further series relates to KYSE-150 cell line. Kind of series: cells. The following applies: Homo sapiens, KYSE-150, 72 h.
In another series the test system is MDA-MB-231. Briefly: cells. Conditions: Homo sapiens, MDA-MB-231, 72 h.

Each structure is given as a SMILES string.

Description for KYSE-150 cell line: Antiproliferative activity against human KYSE-150 cells assessed as inhibition of cell growth incubated for 72 hrs by MTT assay
Description for MDA-MB-435: Antiproliferative activity against human MDA-MB-435 cells assessed as inhibition of cell growth incubated for 72 hrs by MTT assay
Description for in vitro: Cytotoxicity against HUVEC cells assessed as inhibition of cell growth incubated for 72 hrs by MTT assay

Regarding `C=CC(=O)Nc1ccc(C(=O)n2ccc3cc(Br)cnc32)cc1`, the IC50 – broadly, the concentration that inhibits the measured activity by half – at 72 h in “in vitro” (HUVEC cells) came to 75.4 µM. For the same molecule, the IC50 with HepG2 was 39.4 µM; in the series with MDA-MB-435 it was 18.9 µM; in the series with KYSE-150 cell line it was 16.8 µM; in the series on MDA-MB-231 it was 24.4 µM.

In turn, `C=CC(=O)Nc1cc(Cn2nnc3c(C(=O)NCC(F)F)cccc32)ccc1F` showed an IC50 at 72 h in “in vitro” (HUVEC cells) of 50.9 µM. Moreover, the IC50 worked out at 19.9 µM with HepG2, 27.9 µM with MDA-MB-435, 16.2 µM in the series on KYSE-150 cell line and 29.2 µM in the series on MDA-MB-231.

Turning to `C=CC(=O)Nc1cc(Cn2cnc3ccc(Cl)nc32)ccc1F`, half-maximal inhibition in the series “in vitro” (HUVEC cells) (IC50 at 72 h) required 64.5 µM. Moreover, the IC50 in the series with HepG2 turned out to be 24.7 µM; in the series with MDA-MB-435, 24.3 µM; in the series on KYSE-150 cell line, 13.8 µM; in the series with MDA-MB-231, 25.8 µM.

Turning to `C=CC(=O)Nc1ccc(Cn2cnc3c(-c4ccc(F)c(F)c4)ncnc32)cc1`, in “in vitro” (HUVEC cells), the IC50 at 72 h turned out to be 75.2 µM. The IC50 in the series on HepG2 came to 8.36 µM; in the series with MDA-MB-435, 13.2 µM; in the series on KYSE-150 cell line, 14.3 µM; in the series on MDA-MB-231 it was 5.64 µM.

With `CC(C)C(=O)Nc1ccc(Cn2cnc3c(Cl)ncnc32)cc1`, in the series “in vitro” (HUVEC cells), the half-inhibitory concentration (IC50) at 72 h came to 79.6 µM. Moreover, the IC50 in the series with HepG2 stood at 27.6 µM; with MDA-MB-435 it was 29.4 µM; with KYSE-150 cell line it was 18.9 µM; in the series with MDA-MB-231, 7.17 µM.

`C=CC(=O)N1CC[C@@H](n2nc(C#Cc3cc(OC)cc(OC)c3)c3c(N)ncnc32)C1`: half-maximal inhibition in “in vitro” (huvec) (IC50 at 72 h) was put at 63.6 µM. The values for the IC50 in the series on MDA-MB-435 and with KYSE-150 cell line were 16.3 µM and 17.6 µM, respectively.

In “in vitro” (HUVEC cells), `O=C(CCl)Nc1ccc(Cn2cnc3c(Cl)ncnc32)cc1` returned an IC50 at 72 h of 64 µM. The IC50 in the series with HepG2 was 27.3 µM; with MDA-MB-435, 26.4 µM; in the series with KYSE-150 cell line it was 12.3 µM; in the series with MDA-MB-231, 21.2 µM.

In the case of `C=CC(=O)Nc1cc(Cn2cnc3cnc(Cl)nc32)ccc1F`, in the series “in vitro” (HUVEC cells), 57.1 µM corresponded to half-maximal inhibition (IC50 at 72 h). Also, the IC50 in the series on HepG2 was determined as 24.2 µM; with MDA-MB-435, 20.8 µM; with KYSE-150 cell line, 23.8 µM; with MDA-MB-231, 23.8 µM.

With `C=C(C)C(=O)Nc1ccc(Cn2cnc3c(Cl)ncnc32)cc1`, the IC50 at 72 h in “in vitro” (HUVEC cells) came to 80.9 µM. Further, the IC50 with HepG2 was 48.4 µM; in the series with MDA-MB-435 it was 29.4 µM; with KYSE-150 cell line, 26 µM; with MDA-MB-231, 66.3 µM.

Consider `C=CC(=O)Nc1ccc(Cn2cnc3c(Cl)ncnc32)cc1`, for which the IC50 at 72 h in “in vitro” (HUVEC cells) was found to be 50.5 µM. Further, the IC50 in the series on HepG2 was 2.81 µM; in the series with MDA-MB-435 it was 5.93 µM; with KYSE-150 cell line it was 2.95 µM; in the series with MDA-MB-231 it was 2.64 µM.

Consider `C=CC(=O)Nc1ccc(C(=O)n2ncc3ccc(Br)cc32)cc1`, for which, in the series “in vitro” (HUVEC cells), the IC50 at 72 h is 81 µM. The IC50 was 51.1 µM with HepG2, 3.3 µM with MDA-MB-435, 6.86 µM in the series on KYSE-150 cell line and 40 µM in the series with MDA-MB-231.

As to `C=CC(=O)Nc1cc(Cn2nnc3c(C(=O)NCC4CC(F)(F)C4)cccc32)ccc1F`, it took 46.2 µM to reach half-maximal inhibition in the series “in vitro” (HUVEC cells) (IC50 at 72 h). In addition, the IC50 in the series with HepG2 stood at 29.6 µM; in the series on MDA-MB-435, 27 µM; with KYSE-150 cell line, 6.86 µM; in the series with MDA-MB-231, 10 µM.

`CC(Cl)C(=O)Nc1ccc(Cn2cnc3c(Cl)ncnc32)cc1` (stereo not drawn) registered an IC50 at 72 h in “in vitro” (HUVEC cells) of 81.8 µM. Also, the concentration for half-maximal inhibition (IC50) in the series on HepG2 was 17.8 µM; with MDA-MB-435, 32.2 µM; in the series with KYSE-150 cell line, 9.46 µM; in the series on MDA-MB-231, 9.87 µM.

Consider `C=CC(=O)Nc1ccc(Cn2cnc3c(-c4ccccc4)ncnc32)cc1`, for which 81.3 µM corresponded to half-maximal inhibition in the series “in vitro” (HUVEC cells) (IC50 at 72 h). Moreover, the IC50 in the series with HepG2 was determined as 9.34 µM; with MDA-MB-435, 12.8 µM; in the series on KYSE-150 cell line it was 11.2 µM; with MDA-MB-231, 7.22 µM.

Take `CCC(=O)Nc1ccc(Cn2cnc3c(Cl)ncnc32)cc1`: the IC50 at 72 h in “in vitro” (HUVEC cells) was determined as 80.1 µM. The IC50 with HepG2 worked out at 28.5 µM; in the series with MDA-MB-435, 30.1 µM; in the series with KYSE-150 cell line, 13.3 µM; with MDA-MB-231, 7.93 µM.

As for `C=CC(=O)Nc1ccc(C(=O)n2ncc3cccnc32)cc1`, the IC50 at 72 h in “in vitro” (HUVEC cells) is 82.2 µM. The IC50 was 42.6 µM with HepG2, 33.8 µM in the series with MDA-MB-435, 9.83 µM in the series with KYSE-150 cell line and 26.7 µM in the series with MDA-MB-231.

In the case of `C=CC(=O)Nc1ccc(C(=O)n2ccc3c(Cl)ncnc32)cc1`, the IC50 at 72 h in “in vitro” (HUVEC cells) is 56.1 µM. Besides, the IC50 was 40.1 µM in the series on HepG2, 10 µM with MDA-MB-435, 10.1 µM with KYSE-150 cell line and 29.4 µM with MDA-MB-231.

In turn, `C=CC(=O)Nc1cc(Cn2ccc3c(Cl)ncnc32)ccc1F` returned an IC50 at 72 h in “in vitro” (HUVEC cells) of 60.3 µM. In addition, the IC50 was found to be 26.8 µM in the series with HepG2, 27.1 µM with MDA-MB-435, 7.68 µM in the series with KYSE-150 cell line and 29.3 µM in the series on MDA-MB-231.

In the series “in vitro” (HUVEC cells), `C=CC(=O)Nc1ccc(Cn2cnc3c(-c4cc5ccccc5o4)ncnc32)cc1` had an IC50 at 72 h of 79.2 µM. Moreover, the 50% inhibitory concentration (IC50) came out at 12.2 µM with HepG2, 20.1 µM in the series with MDA-MB-435, 13.5 µM in the series with KYSE-150 cell line and 6.53 µM with MDA-MB-231.

With `C=CC(=O)Nc1ccc(Cn2cnc3c(-c4cc5ccccc5s4)ncnc32)cc1`, the half-inhibitory concentration (IC50) at 72 h in “in vitro” (HUVEC cells) stood at 79.1 µM. Also, the half-inhibitory concentration (IC50) amounted to 9.26 µM in the series on HepG2, 11.1 µM with MDA-MB-435, 8.26 µM in the series with KYSE-150 cell line and 13.9 µM with MDA-MB-231.

`O=C(Nc1ccc(Cn2cnc3c(Cl)ncnc32)cc1)C1CC1` yielded an IC50 at 72 h in the series “in vitro” (HUVEC cells) of 81.2 µM. In addition, the IC50 with HepG2 is 27 µM; with MDA-MB-435, 31.6 µM; in the series with KYSE-150 cell line, 10.6 µM; with MDA-MB-231, 9.64 µM.

In the case of `CC(C)=CC(=O)Nc1ccc(Cn2cnc3c(Cl)ncnc32)cc1`, inhibition in “in vitro” (HUVEC cells) was half-maximal at 77.1 µM (IC50 at 72 h). Also, the IC50 in the series with HepG2 turned out to be 19.1 µM; with MDA-MB-435, 30.1 µM; in the series on KYSE-150 cell line, 13.3 µM; in the series with MDA-MB-231 it was 7.36 µM.

`C=CC(=O)Nc1cc(Cn2ncc3ccc(Br)cc32)ccc1F`: the IC50 at 72 h in “in vitro” (HUVEC cells) was found to be 69.7 µM. The IC50 in the series with HepG2 was 16.4 µM; in the series with MDA-MB-435, 6.3 µM; with KYSE-150 cell line it was 9.84 µM; in the series on MDA-MB-231, 29.7 µM.

For `C=CC(=O)Nc1cc(Cn2ccc3cc(Br)cnc32)ccc1F`, the midpoint of inhibition in “in vitro” (HUVEC cells), the IC50 at 72 h, lay at 75.5 µM. Further, the IC50 with HepG2 is 28.1 µM; in the series with MDA-MB-435 it was 27.4 µM; in the series with KYSE-150 cell line it was 8.23 µM; in the series on MDA-MB-231 it was 37.4 µM.

On to `C=CC(=O)Nc1cc(Cn2ncc3ccncc32)ccc1F`, for which the midpoint of inhibition in “in vitro” (HUVEC cells), the IC50 at 72 h, lay at 54.6 µM. The IC50 in the series with HepG2 is 29.1 µM; in the series on MDA-MB-435, 24.1 µM; with KYSE-150 cell line it was 5.21 µM; in the series on MDA-MB-231 it was 9.15 µM.

For the molecule `C=CC(=O)Nc1ccc(C(=O)n2ccc3cc(Cl)cnc32)cc1`, it took 80.4 µM to reach half-maximal inhibition in the series “in vitro” (HUVEC cells) (IC50 at 72 h). Besides, the IC50 was 45 µM in the series on HepG2, 18.5 µM with MDA-MB-435, 10.8 µM in the series with KYSE-150 cell line and 34.8 µM in the series on MDA-MB-231.

In “in vitro” (HUVEC cells), `C=CC(=O)Nc1cc(Cn2ccc3c(Cl)ccnc32)ccc1F` gave an IC50 at 72 h of 54.4 µM. Also, the IC50 stood at 23.7 µM in the series with HepG2, 27.2 µM in the series with MDA-MB-435, 23 µM in the series on KYSE-150 cell line and 27.2 µM with MDA-MB-231.

`C=CC(=O)Nc1cc(Cn2nnc3c(C(=O)OC)cccc32)ccc1F` displayed an IC50 at 72 h in “in vitro” (HUVEC cells) of 64.2 µM. Further, the IC50 is 30.5 µM in the series on HepG2, 32.5 µM in the series with MDA-MB-435, 13.6 µM with KYSE-150 cell line and 20.3 µM with MDA-MB-231.

`C=CC(=O)Nc1cc(Cn2ccc3ccc(Br)cc32)ccc1F` registered an IC50 at 72 h in “in vitro” (HUVEC cells) of 76.5 µM. Further, the IC50 was 11.1 µM in the series on HepG2, 24.6 µM with MDA-MB-435, 7.26 µM with KYSE-150 cell line and 7.21 µM in the series with MDA-MB-231.

In the series “in vitro” (HUVEC cells), `C=CC(=O)Nc1ccc(Cn2cnc3c(-c4cccs4)ncnc32)cc1` showed an IC50 at 72 h of 77.2 µM. Besides, the IC50 amounted to 11.1 µM with HepG2, 15.7 µM with MDA-MB-435, 12.2 µM in the series with KYSE-150 cell line and 6.18 µM with MDA-MB-231.

Molecule `C=CC(=O)Nc1cc(Cn2cnc3c(Cl)ncnc32)ccc1F` displayed an IC50 at 72 h in “in vitro” (HUVEC cells) of 71.4 µM. Also, the IC50 came to 15.7 µM in the series on HepG2, 5.67 µM in the series with MDA-MB-435, 3.78 µM in the series on KYSE-150 cell line and 10.1 µM in the series on MDA-MB-231.

On to `C=CC(=O)Nc1cc(Cn2ccc3ncnc(Cl)c32)ccc1F`, for which the IC50 at 72 h in “in vitro” (HUVEC cells) came out at 79.3 µM. For the same molecule, the IC50 was 25.1 µM in the series with HepG2, 26.2 µM in the series on MDA-MB-435, 15.9 µM with KYSE-150 cell line and 40.3 µM with MDA-MB-231.
